{
  "source": "ChEMBL document CHEMBL5584249",
  "about": "“Machine learning-based QSAR and LB-PaCS-MD guided design of SARS-CoV-2 main protease inhibitors” (Bioorg Med Chem Lett, 2024)",
  "data": [
    {"biological_target": "Replicase polyprotein 1ab (Severe acute respiratory syndrome coronavirus 2, UniProt P0DTD1)", "assay": "(§1) Inhibition of recombinant SARS CoV-2 main protease by FRET assay", "conditions": "not given", "values": [
      {"compound": "COc1ccc(Cn2[se]c3ccccc3c2=O)c(OC)c1", "pIC50": 6.215},
      {"compound": "Cc1ccc(-n2[se]c3ccccc3c2=O)cc1", "pIC50": 5.64},
      {"compound": "Cc1ccccc1-n1[se]c2ccccc2c1=O", "pIC50": 5.129},
      {"compound": "O=c1c2ccccc2[se]n1Cc1ccc(F)cc1", "pIC50": 6},
      {"compound": "CCc1ccc(-n2[se]c3ccccc3c2=O)cc1", "pIC50": 5.209},
      {"compound": "O=c1c2ccccc2[se]n1-c1cccc(Cl)c1", "pIC50": 6.167},
      {"compound": "O=c1c2ccccc2[se]n1-c1cc(Cl)cc(Cl)c1", "pIC50": 6.194},
      {"compound": "COc1ccc(F)cc1-n1[se]c2ccccc2c1=O", "pIC50": 5.481},
      {"compound": "O=c1c2ccccc2[se]n1-c1ccc(F)cc1", "pIC50": 5.556},
      {"compound": "O=c1c2ccccc2[se]n1-c1c(F)cccc1F", "pIC50": 5.68},
      {"compound": "COc1cc(F)ccc1-n1[se]c2ccccc2c1=O", "pIC50": 5.745},
      {"compound": "COc1ccc(-n2[se]c3ccccc3c2=O)cc1", "pIC50": 5.903},
      {"compound": "O=c1c2ccccc2[se]n1-c1cccc(C(F)(F)F)c1", "pIC50": 5.558},
      {"compound": "N#Cc1cccc(-n2[se]c3ccccc3c2=O)c1", "pIC50": 6.42},
      {"compound": "O=c1c2ccccc2[se]n1-c1ccc(Br)cc1", "pIC50": 5.556}
    ]},
    {"biological_target": "Replicase polyprotein 1ab (Severe acute respiratory syndrome coronavirus 2, UniProt P0DTD1)", "assay": "as §1", "conditions": "read-out: IC50", "units": {"IC50": "µM"}, "values": [
      {"compound": "O=c1c2ccccc2[se]n1-c1ccc(C(F)(F)F)cc1", "IC50": 0.9},
      {"compound": "CCCCCCCCc1ccc(-n2[se]c3ccccc3c2=O)cc1", "IC50": 2.69},
      {"compound": "CCCCCCCc1ccc(-n2[se]c3ccccc3c2=O)cc1", "IC50": 5.56},
      {"compound": "COc1ccc2[se]n(-c3ccccc3)c(=O)c2c1", "IC50": 6.4}
    ]},
    {"biological_target": "Replicase polyprotein 1ab (Severe acute respiratory syndrome coronavirus 2, UniProt P0DTD1)", "assay": "as §1", "conditions": "read-out: pIC50 (converted)", "units": {"IC50": "µM"}, "values": [
      {"compound": "O=c1c2ccccc2[se]n1-c1ccc(C(F)(F)F)cc1", "IC50": 0.883},
      {"compound": "COc1ccc2[se]n(-c3ccccc3)c(=O)c2c1", "IC50": 6.18}
    ]}
  ]
}
